Test results reported in the RepoRT retention time repository (doi:10.1021/acs.analchem.2c02893).

Experiment: RP, Thermo Scientific Acclaim RSLC 120 C18, 100 × 2.1 mm, 2.2 µm, 30 °C, 0.2 mL/min, estimated dead time 1.1 min; A: 90% water + 10% methanol + 0.01% formic acid + 5 mM ammonium formate, pH 3.61; B: methanol + 0.01% formic acid + 5 mM ammonium formate, pH 3.61; gradient (min/%B) 0/1 1/1 2/39 13/99.9 15/99.9 15.1/1 20.1/1
Conditions: stereoisomer not certain

LC retention time [min] | SMILES
10.3 | COC(=O)C1=C(C#N)NC(C)=C(C(=O)OC(C)C)C1c1cccc([N+](=O)[O-])c1 (stereo not drawn) [Nilvadipine]
4.09 | O=[N+]([O-])c1cncn1CCN1CCOCC1 [Nimorazole]
10.6 | COC(=O)C1=C(C)NC(C)=C(C(=O)OCC(C)C)C1c1ccccc1[N+](=O)[O-] (stereo not drawn) [Nisoldipine]
4.14 | O=C1CN(N=Cc2ccc([N+](=O)[O-])o2)C(=O)N1 [Nitrofurantoin]
12 | CC(C)OC(=O)c1cc(C(=O)OC(C)C)cc([N+](=O)[O-])c1 [Nitrothal-isopropyl]
2.96 | CNC(=C[N+](=O)[O-])NCCSCc1csc(CN(C)C)n1 [Nizatidine]
10.8 | C#CC1(OC(C)=O)CCC2C3CCC4=CC(=O)CCC4C3CCC21C (stereo not drawn) [Norethisterone acetate]
9.15 | C#CC1(O)CCC2C3CCC4=CC(=O)CCC4C3CCC21C (stereo not drawn) [Norethisterone]
11.9 | C#CC1(OC(C)=O)CCC2C3CCC4=CC(=NO)CCC4C3CCC21CC (stereo not drawn) [Norgestimate]
10.2 | C#CC1(O)CCC2C3CCC4=CC(=O)CCC4C3CCC21CC (stereo not drawn) [Norgestrel]
11.2 | COC1C(OC(N)=O)C(O)C(Oc2ccc3c(O)c(NC(=O)c4ccc(O)c(CC=C(C)C)c4)c(=O)oc3c2C)OC1(C)C (stereo not drawn) [Novobiocin]
3.03 | ON=Cc1cc[n+](COC[n+]2ccc(C=NO)cc2)cc1 [Obidoxime]
14.1 | CCCCCCCCc1ccc(OCCOCCO)cc1 [Octylphenol diethoxylates (OP2EO)_NH4 adduct]
12.4 | CCCCCCCCc1ccc(OCCO)cc1 [Octylphenol monoethoxylates (OP1EO)_NH4 adduct]
7 | Cc1cccc(C)c1N(C(=O)CCl)C1CCOC1=O (stereo not drawn) [Ofurace]
6.89 | CN(C)CCC=C1c2ccccc2COc2ccc(CC(=O)O)cc21 [Olopatadine]
11.3 | CCN(CC)C(=O)SCc1ccccc1Cl [Orbencarb]
14.6 | CCCCCCCCCCCC(CC1OC(=O)C1CCCCCC)OC(=O)C(CC(C)C)NC=O (stereo not drawn) [Orlistat (Na)]
7.54 | CNCCOC(c1ccccc1)c1ccccc1C (stereo not drawn) [Orphenadrine-Nor (Tofenacin. Elamol)]

LC retention time [min] | SMILES
7.44 | Cc1ccccc1C(OCCN(C)C)c1ccccc1 (stereo not drawn) [Orphenadrine]
4.73 | CCC(CC)OC1C=C(C(=O)O)CC(N)C1NC(C)=O (stereo not drawn) [Oseltamivir-carboxylate]
6.76 | CCOC(=O)C1=CC(OC(CC)CC)C(NC(C)=O)C(N)C1 (stereo not drawn) [Oseltamivir]
6.9 | Cc1onc(-c2ccccc2)c1C(=O)NC1C(=O)N2C1SC(C)(C)C2C(=O)O (stereo not drawn) [Oxacillin]
11.2 | C#CCOc1cc(-n2nc(C(C)(C)C)oc2=O)c(Cl)cc1Cl [Oxadiargyl]
8.04 | CCN(CC)CCOCCOC(=O)C(CC)(CC)c1ccccc1 [Oxeladin]
10.9 | CN(C(=O)CN(CCO)CC(=O)N(C)C(C)(C)Cc1ccccc1)C(C)(C)Cc1ccccc1 [Oxetacaine]
9.09 | CCCc1nn(C)c2c(=O)[nH]c(-c3cc(C(=O)CN4CCN(CC)C(=O)C4)ccc3OCC)nc12 [Oxohongdenafil]
5.34 | CC(CN(C)C)CN1c2ccccc2S(=O)(=O)c2ccccc21 (stereo not drawn) [Oxomemazine]
5.66 | C=CCOc1ccccc1OCC(O)CNC(C)C (stereo not drawn) [Oxprenolol]
5.94 | CCCCOc1cc(C(=O)OCCN(CC)CC)ccc1N [Oxybuprocaine]
8.92 | CCN(CC)CC#CCOC(=O)C(O)(c1ccccc1)C1CCCCC1 (stereo not drawn) [Oxybutynin]
6.99 | Cc1cc(C(C)(C)C)c(O)c(C)c1CC1=NCCN1 [Oxymetazoline]
7.57 | OCCN1CCN(CCCN2c3ccccc3Sc3cccnc32)CC1 [Oxypendyl]
5.76 | COc1cc2[nH]c(C)c(CCN3CCN(c4ccccc4)CC3)c2cc1OC [Oxypertine]
7.98 | CN1CCCN=C1COC(=O)C(O)(c1ccccc1)C1CCCCC1 (stereo not drawn) [Oxyphencyclimine]
9.49 | CC(C)(C)C(O)C(Cc1ccc(Cl)cc1)n1cncn1 (stereo not drawn) [Paclobutrazole]
7.46 | COc1ccnc(CS(=O)c2nc3ccc(OC(F)F)cc3[nH]2)c1OC (stereo not drawn) [Pantoprazole]
8.69 | CC1CC2C3CC(F)C4=CC(=O)C=CC4(C)C3C(O)CC2(C)C1(O)C(=O)CO (stereo not drawn) [Paramethasone]

Continued, molecule first:

SMILES | LC retention time [min]
CCN(Cc1ccc(Cl)nc1)C(=C[N+](=O)[O-])NC [Nitenpyram] | 3.9
Nc1ccc2c(c1)C(c1ccccc1)=NCC(=O)N2 [Nitrazepam- 7-Amino] | 4.78
O=C1CN=C(c2ccccc2)c2cc([N+](=O)[O-])ccc2N1 [Nitrazepam] | 7.79
Cc1nnc2n1-c1ccc([N+](=O)[O-])cc1C(c1ccccc1)=NC2 [Nitrazolam] | 6.91
O=[N+]([O-])c1ccc(Oc2ccc(Cl)cc2Cl)cc1 [Nitrofen] | 12.1
CN1Cc2c(N)cccc2C(c2ccccc2)C1 (stereo not drawn) [Nomifensine] | 5.42
CCC(=O)OC(Cc1ccccc1)(c1ccccc1)C(C)CNC (stereo not drawn) [Nordextropropoxyphene] | 7.84
CCn1cc(C(=O)O)c(=O)c2cc(F)c(N3CCNCC3)cc21 [Norfloxacin] | 4.46
CNc1cnn(-c2cccc(C(F)(F)F)c2)c(=O)c1Cl [Norflurazon] | 8.51
COc1ccc2c(c1OC)C(=O)OC2C1c2c(cc3c(c2OC)OCO3)CCN1C (stereo not drawn) [Noscapine] | 6.96
O=C(NC(=O)c1c(F)cccc1F)Nc1ccc(OC(F)(F)C(F)OC(F)(F)F)c(Cl)c1 (stereo not drawn) [Novaluron] | 11.9
O=C(NC(=O)c1c(F)cccc1F)Nc1cc(Cl)c(OC(F)(F)C(F)C(F)(F)F)c(Cl)c1F (stereo not drawn) [Noviflumuron] | 12.7
OC(c1ccc(F)cc1)(c1cncnc1)c1ccccc1Cl (stereo not drawn) [Nuarimol] | 9.17
CC1C=CC=CCCC=CC=CC=CC=CC(OC2OC(C)C(O)C(N)C2O)CC2OC(O)(CC(O)C(O)CCC(O)CC(O)CC(O)CC(=O)OC(C)C(C)C1O)CC(O)C2C(=O)O (stereo not drawn) [Nystatin] | 10.3
Cc1cc2c(s1)Nc1ccccc1N=C2N1CCN(C)CC1 [Olanzapine] | 4.99
O=C(O)c1cc(N=Nc2ccc(O)c(C(=O)O)c2)ccc1O [Olsalazine] | 5.66
CNC(=O)CSP(=O)(OC)OC [Omethoate] | 3.35
Cc1nccn1CC1CCc2c(c3ccccc3n2C)C1=O (stereo not drawn) [Ondansetron] | 4.98
OCCN1CCN(CCCN2c3ccccc3C=Cc3ccccc32)CC1 [Opipramol] | 7.83
CCCN(CCC)c1c([N+](=O)[O-])cc(S(N)(=O)=O)cc1[N+](=O)[O-] [Oryzalin] | 10.3
CC(C)Oc1cc(-n2nc(C(C)(C)C)oc2=O)c(Cl)cc1Cl [Oxadiazon] | 12.3
COCC(=O)N(c1c(C)cccc1C)N1CCOC1=O [Oxadixyl] | 6.29
CNC(=O)ON=C(SC)C(=O)N(C)C [Oxamyl] | 3.77

SMILES | LC retention time [min]
Cc1cc(C)nc(NC(=O)NS(=O)(=O)c2ccccc2C(=O)OC2COC2)n1 [Oxasulfuron] | 6.52
O=c1[nH]c2ccccc2n1CCCN1CCN(C(c2ccccc2)c2ccccc2)CC1 [Oxatomide] | 8.42
O=C1Nc2ccc(Cl)cc2C(c2ccccc2)=NC1O (stereo not drawn) [Oxazepam] | 8.43
NC(=O)N1c2ccccc2CC(=O)c2ccccc21 [Oxcarbazepine] | 6.46
CC[N+]1(C)C2CC(OC(=O)C(CO)c3ccccc3)CC1C1OC12 (stereo not drawn) [Oxitropium] | 3.87
CCn1cc(C(=O)O)c(=O)c2cc3c(cc21)OCO3 [Oxolinic acid] | 6.03
COc1ccc2c3c1OC1C(=O)CCC4(O)C(C2)NCCC314 (stereo not drawn) [Oxycodone-Nor] | 3.71
COc1ccc2c3c1OC1C(=O)CCC4(O)C(C2)N(C)CCC314 (stereo not drawn) [Oxycodone] | 3.61
COc1cccc(C(=O)CCNC(C)C(O)c2ccccc2)c1 (stereo not drawn) [Oxyfedrine] | 6.14
CCOc1cc(Oc2ccc(C(F)(F)F)cc2Cl)ccc1[N+](=O)[O-] [Oxyfluorfen] | 12.1
CN1CCC23c4c5ccc(O)c4OC2C(=O)CCC3(O)C1C5 (stereo not drawn) [Oxymorphone] | 2.75
CN(C)C1C(=O)C(C(N)=O)=C(O)C2(O)C(=O)C3=C(O)c4c(O)cccc4C(C)(O)C3C(O)C12 (stereo not drawn) [Oxytetracycline] | 4.6
O=C(Oc1cccc2cccnc12)c1cn(CCCCCF)c2ccccc12 [PB-22-5F] | 10.7
CCCCCn1cc(C(=O)Oc2cccc3cccnc23)c2ccccc21 [PB-22] | 11.9
O=C(Nc1cccc2ccccc12)c1cn(CCCCCF)c2ccncc12 [PCN-5F] | 11.8
COc1ccc(CC(C)N)cc1 (stereo not drawn) [PMA] | 4.34
CC(C(=O)c1ccccc1)N1CCCC1 (stereo not drawn) [PPP- alpha] | 4.01
CCCC(C(=O)c1ccccc1)N1CCCC1 (stereo not drawn) [PVP- Alpha] | 5.08
O=C1OC(=O)c2ccccc21 [PX-1] | 9.58
COP(=O)(OC)Oc1ccc([N+](=O)[O-])cc1 [Paraoxon-methyl] | 6.36
CCOP(=O)(OCC)Oc1ccc([N+](=O)[O-])cc1 [Paraoxon] | 8.01
COP(=S)(OC)Oc1ccc([N+](=O)[O-])cc1 [Parathion-methyl] | 9.24
